The target of the assay is T1, abc isoform of human TMEM16A channel expressed in CHO cells (Homo sapiens, UniProt Q5XXA6, DEL476-501).
T1 construct: expressed in transfected cells; host or cells: CHO cells, doxycycline-inducible expression under Blasticidin/Zeocin selection
T1 sequence (Q5XXA6 with tags, fused parts or gaps isoform Q5XXA6-5 DEL539-564): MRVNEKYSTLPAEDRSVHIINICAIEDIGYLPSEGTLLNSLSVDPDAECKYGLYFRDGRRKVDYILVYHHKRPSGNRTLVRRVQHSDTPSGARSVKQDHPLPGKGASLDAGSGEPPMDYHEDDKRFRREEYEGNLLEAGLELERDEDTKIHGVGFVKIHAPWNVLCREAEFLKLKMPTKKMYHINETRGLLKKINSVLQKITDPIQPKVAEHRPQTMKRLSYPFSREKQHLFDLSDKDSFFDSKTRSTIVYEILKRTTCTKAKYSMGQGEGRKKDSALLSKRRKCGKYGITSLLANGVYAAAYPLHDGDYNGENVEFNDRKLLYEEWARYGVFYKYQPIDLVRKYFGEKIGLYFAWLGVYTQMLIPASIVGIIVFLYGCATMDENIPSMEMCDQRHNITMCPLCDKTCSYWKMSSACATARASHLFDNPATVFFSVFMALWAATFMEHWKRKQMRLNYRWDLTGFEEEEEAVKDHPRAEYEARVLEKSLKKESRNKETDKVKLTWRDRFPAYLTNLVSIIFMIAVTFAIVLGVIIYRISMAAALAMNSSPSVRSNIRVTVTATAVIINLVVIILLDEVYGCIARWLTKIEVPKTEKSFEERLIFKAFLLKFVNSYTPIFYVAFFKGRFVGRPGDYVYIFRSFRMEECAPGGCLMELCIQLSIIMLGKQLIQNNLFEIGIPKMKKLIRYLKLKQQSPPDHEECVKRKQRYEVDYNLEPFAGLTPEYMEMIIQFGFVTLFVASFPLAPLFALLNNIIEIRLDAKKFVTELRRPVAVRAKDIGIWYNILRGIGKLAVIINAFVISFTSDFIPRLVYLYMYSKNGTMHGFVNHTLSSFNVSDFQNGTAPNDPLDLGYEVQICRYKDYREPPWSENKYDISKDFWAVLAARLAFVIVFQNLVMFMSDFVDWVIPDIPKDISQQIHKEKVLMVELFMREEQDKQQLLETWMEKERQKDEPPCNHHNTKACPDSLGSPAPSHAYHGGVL
In words: Automated patch clamping (QPatch) assay to measure TMEM16A activity in whole-cell. The class given is cell-based. To be noted: for EC50: CHO cells expressing human TMEM16A (abc), whole-cell automated patch clamp, Hill fit, read-out: TMEM16A QPATCH assay EC50 V3 EC50; for Emax: CHO, maximum current at highest dose relative to reference potentiator at maximal concentration (upper limit) and vehicle (lower limit), read-out: TMEM16A QPATCH assay EC50 V3 Assay Window (% TMEM16A max activation). The essentials:
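Whole-cell currents were recorded by planar automated patch clamp from induced CHO cells (doxycycline 1 μg/mL, 18-24 h), using a −70 mV hold, +70 mV step and −90 to +70 mV ramp. Values: Hill-fitted EC50, and activation scaled between vehicle current and reference-potentiator maximum; 0.3% DMSO final.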
For orientation: Patch clamp records ionic current or voltage across a cell membrane.

Structures can show the parent of a compound that is named as a salt.

`CCOC(=O)[C@@H](NC(=O)c1cnc(-c2cccc(-c3cc(C(=O)NC(C)C(F)(F)F)[nH]n3)c2)o1)C(C)C` (stereo partly drawn) [Example 3.55, (2S)-Ethyl 3-Methyl-2-(2-(3-(5-((1,1,1-Trifluoropropan-2-Yl)Carbamoyl)-1H-Pyrazol-3-Yl)Phenyl)Oxazole-5-Carboxamido)Butanoate]: the EC50 was found to be 20 nM and the Emax is 69%.
As to `CCC(CC)NC(=O)c1cnc(-c2cccc(-c3cc(C(=O)N[C@H](C)C4CC4)[nH]n3)c2)o1` [Example 3.56, (R)-2-(3-(5-((1-Cyclopropylethyl)Carbamoyl)-1H-Pyrazol-3-Yl)Phenyl)-N-(Pentan-3-Yl)Oxazole-5-Carboxamide], the EC50 is 90 nM and the Emax came out at 78%.
As to `CCC(CC)NC(=O)c1cnc(-c2cccc(-c3cc(C(=O)N[C@@H](CC(C)C)C(=O)NCC(=O)OC(C)(C)C)n[nH]3)c2)o1` [Example 3.57, (S)-Tert-Butyl 2-(4-Methyl-2-(5-(3-(5-(Pentan-3-Ylcarbamoyl)Oxazol-2-Yl)Phenyl)-1H-Pyrazole-3-Carboxamido)Pentanamido)Acetate], the EC50 was found to be 650 nM and the Emax came to 111%.
As to `COC(=O)[C@H](CC(C)C)NC(=O)c1cc(-c2cccc(-c3ncc(C(=O)N[C@@H](CC(C)C)C(=O)OC)o3)c2)[nH]n1` [Example 3.58, (S)-Methyl 2-(2-(3-(3-(((S)-1-Methoxy-4-Methyl-1-Oxopentan-2-Yl)Carbamoyl)-1H-Pyrazol-5-Yl)Phenyl)Oxazole-5-Carboxamido)-4-Methylpentanoate], the EC50 stood at 270 nM and the Emax came out at 77%.
As to `CCOC(=O)[C@H](NC(=O)c1cc(-c2cccc(-c3ncc(C(=O)NC(CC)CC)o3)c2)[nH]n1)c1ccccc1` [Example 3.59, (R)-Ethyl 2-(5-(3-(5-(Pentan-3-Ylcarbamoyl)Oxazol-2-Yl)Phenyl)-1H-Pyrazole-3-Carboxamido)-2-Phenylacetate Trifluoroacetate], the EC50 came out at 60 nM and the Emax was determined as 106%.
As to `CCOC(=O)[C@H](CC(C)C)NC(=O)c1cc(-c2cccc(-c3ncc(C(=O)NC(CC)CC)o3)c2)[nH]n1` [Example 3.60, (S)-Ethyl 4-Methyl-2-(5-(3-(5-(Pentan-3-Ylcarbamoyl)Oxazol-2-Yl)Phenyl)-1H-Pyrazole-3-Carboxamido)Pentanoate Trifluoroacetate], the EC50 was determined as 160 nM and the Emax stood at 150%.
The like results for `CCC(CC)NC(=O)c1cnc(-c2cccc(-c3cc(C(=O)N[C@@H](COC(C)(C)C)C(=O)OC(C)(C)C)n[nH]3)c2)o1` [Example 3.61, (S)-Tert-Butyl 3-(Tert-Butoxy)-2-(5-(3-(5-(Pentan-3-Ylcarbamoyl)Oxazol-2-Yl)Phenyl)-1 H-Pyrazole-3-Carboxamido)Propanoate Trifluoroacetate] were, in that order, 130 nM and 123%.
As for `CCC(CC)NC(=O)c1cnc(-c2cccc(-c3cc(C(=O)N4CCC(C(=O)OC(C)(C)C)C4)n[nH]3)c2)o1` (stereo not drawn) [Example 3.62, Tert-Butyl 1-(5-(3-(5-(Pentan-3-Ylcarbamoyl)Oxazol-2-Yl)Phenyl)-1H-Pyrazole-3-Carbonyl)Pyrrolidine-3-Carboxylate Trifluoroacetate], the EC50 turned out to be 960 nM and the Emax is 70%.
Consider `CCOC(=O)[C@H](C)NC(=O)c1cc(-c2cccc(-c3ncc(C(=O)NC(CC)CC)o3)c2)[nH]n1` [Example 3.63, (S)-Ethyl 2-(5-(3-(5-(Pentan-3-Ylcarbamoyl)Oxazol-2-Yl)Phenyl)-1H-Pyrazole-3-Carboxamido)Propanoate Trifluoroacetate], for which the EC50 was 860 nM and the Emax amounted to 72%.
As to `CCC(CC)NC(=O)c1cnc(-c2cccc(-c3cc(C(=O)N[C@@H](C)C(=O)OCc4ccccc4)n[nH]3)c2)o1` [Example 3.64, (S)-Benzyl 2-(5-(3-(5-(Pentan-3-Ylcarbamoyl)Oxazol-2-Yl)Phenyl)-1H-Pyrazole-3-Carboxamido)Propanoate Trifluoroacetate], the EC50 was 150 nM and the Emax was determined as 72%.
In the case of `CCC(CC)NC(=O)c1cnc(-c2cccc(-c3cc(C(=O)N[C@@H](C(=O)OC)c4ccccc4)n[nH]3)c2)o1` [Example 3.65, (R)-Methyl 2-(5-(3-(5-(Pentan-3-Ylcarbamoyl)Oxazol-2-Yl)Phenyl)-1H-Pyrazole-3-Carboxamido)-2-Phenylacetate Trifluoroacetate], the EC50 was found to be 780 nM and the Emax was determined as 28%.
For `CCOC(=O)[C@H](Cc1ccccc1)NC(=O)c1cc(-c2cccc(-c3ncc(C(=O)NC(CC)CC)o3)c2)[nH]n1` [Example 3.66, (S)-Ethyl 2-(5-(3-(5-(Pentan-3-Ylcarbamoylyl-Carbamoyl)Oxazol-2-Yl)Phenyl)-1H-Pyrazole-3-Carboxamido)-3-Phenylpropanoate Trifluoroacetate], in that order: 140 nM and 80%.
As to `CCC(CC)NC(=O)c1cnc(-c2cccc(-c3cc(C(=O)NCC4(N5CCOCC5)CCCCC4)n[nH]3)c2)o1` [Example 3.67, 2-(3-(3-(((1-Morpholinocyclohexyl)Methyl)Carbamoyl)-1H-Pyrazol-5-Yl)Phenyl)-N-(Pentan-3-Yl)Oxazole-5-Carboxamide Trifluoroacetate], the EC50 is 790 nM and the Emax is 68%.
Turning to `CCC(CC)NC(=O)c1cc(-c2cccc(-c3ncc(C(=O)NC(C)(C)CCc4ccccc4)o3)c2)[nH]n1` [Example 3.68, N-(2-Methyl-4-Phenylbutan-2-Yl)-2-(3-(3-(Pentan-3-Ylcarbamoylyl-Carbamoyl)-1H-Pyrazol-5-Yl)Phenyl)Oxazole-5-Carboxamide], the EC50 stood at 160 nM and the Emax was 88%.
The like results for `CCC(CC)NC(=O)c1cc(-c2cccc(-c3ncc(C(=O)NC(C)(C)C(=O)OC(C)(C)C)o3)c2)[nH]n1` [Example 3.69, Tert-Butyl 2-Methyl-2-(2-(3-(3-(Pentan-3-Ylcarbamoyl)-1H-Pyrazol-5-Yl)Phenyl)Oxazole-5-Carboxamido)Propanoatehexafluorophosphatepropanoate Hexafluorophosphate] were, in that order, 260 nM and 76%.
In the case of `CCC(CC)NC(=O)c1cc(-c2cccc(-c3ncc(C(=O)N[C@@H](C)C4CC4)o3)c2)nn1CCO` [Example 4.0, (S)-N-(1-Cyclopropylethyl)-2-(3-(1-(2-Hydroxyethyl)-5-(Pentan-3-Ylcarbamoyl)-1 H-Pyrazol-3-Yl)Phenyl)Oxazole-5-Carboxamide], the EC50 was 330 nM and the Emax is 106%.
For `CCOC(=O)[C@@H](NC(=O)c1cnc(-c2cccc(-c3cc(C(=O)NC(CC)CC)n(CCO)n3)c2)o1)C(C)C` [Example 4.1, (S)-Ethyl 2-(2-(3-(1-(2-Hydroxyethyl)-5-(Pentan-3-Ylcarbamoyl)-1H-Pyrazol-3-Yl)Phenyl)Oxazole-5-Carboxamido)-3-Methylbutanoate], in that order: 27 nM and 81%.
The like results for `CCOC(=O)[C@@H](NC(=O)c1cnc(-c2cccc(-c3cc(C(=O)N[C@@H](C)C4CC4)n(CCO)n3)c2)o1)C(C)C` [Example 4.2, (S)-Ethyl 2-(2-(3-(5-(((S)-1-Cyclopropylethyl)Carbamoyl)-1-(2-Hydroxyethyl)-1H-Pyrazol-3-Yl)Phenyl)Oxazole-5-Carboxamido)-3-Methylbutanoate] were, in that order, 680 nM and 125%.

The EC50 is the concentration needed to bring the measured effect to its halfway point.

These data come from US20220306617A1, “SUBSTITUTED 1,3-PHENYL HETEROARYL DERIVATIVES AND THEIR USE IN THE TREATMENT OF DISEASE” (NOVARTIS AG, priority 2019, published 2022).
